These results are taken from BindingDB's records for doi:10.1016/j.bmcl.2018.04.050 (Abbvie, 2018).

The structures appear in SMILES notation.

Test [1] is described as follows: Binding affinity to thrombin cleavable N-terminal 6His tagged and 13C-IVLM labeled human KDM4A tandem TUDOR domain (897 to 1011 residues) expressed in Escherichia coli BL21(DE3)-T1R assessed as apparent Kd for H3(1-10)K4me3 peptide at 0.5 mM by ITC method (Rvb = 5.2 +/- 0.3 uM).
The nature of test [2]: Binding affinity to thrombin cleavable N-terminal 6His tagged and 13C-IVLM labeled human KDM4A tandem TUDOR domain (897 to 1011 residues) expressed in Escherichia coli BL21(DE3)-T1R assessed as apparent Kd for H3(1-10)K4me3 peptide at 2.5 mM by ITC method (Rvb = 5.2 +/- 0.3 uM).
Test [3] is described as follows: Binding affinity to thrombin cleavable N-terminal 6His tagged and 13C-IVLM labeled human KDM4A tandem TUDOR domain (897 to 1011 residues) expressed in Escherichia coli BL21(DE3)-T1R assessed as apparent Kd for H3(1-10)K4me3 peptide at 1 mM by ITC method (Rvb = 5.2 +/- 0.3 uM). (In general: In ITC the heat of successive injections is recorded.)

With `CN(C)C[C@H]1C2CCC(c3ccccc3)(C2)[C@H]1O` (stereo partly drawn), the figures for the Kd in test [1], in test [2] and in test [3] were 15.5 µM, 55.1 µM and 22.7 µM, respectively.
